Results reported in ChEMBL document CHEMBL1614632, “Trend analysis of a database of intravenous pharmacokinetic parameters in humans for 670 drug compounds” (Drug Metab Dispos, 2008).

Tests used:
clinical [1] = conditions: human, in vivo, iv, t1/2
clinical [2] = conditions: human, in vivo, iv, Vdss
clinical [3] = conditions: human, in vivo, iv
clinical [4] = conditions: human, in vivo, iv, CL

SMILES	half-life (clinical [1])	Vd (clinical [2])	MRT (clinical [3])	clearance (clinical [4])
CN(C)CCC=C1c2ccccc2COc2ccccc21 [DOXEPIN]	15 h	12 L/kg	15 h	14 mL/min/kg
CC(C)(C)NCC(O)c1cc(O)cc(O)c1 (stereo not drawn) [TERBUTALINE]	15 h	1.5 L/kg	7.4 h	3.4 mL/min/kg
Cc1cc(-n2cccc2)c(S(C)(=O)=O)cc1C(=O)NC(=N)N [ENIPORIDE]	2.2 h	1.1 L/kg	2.3 h	8.2 mL/min/kg
CC[C@H](C)C(=O)O[C@H]1C[C@@H](C)C=C2C=C[C@H](C)[C@H](CC[C@@H]3C[C@@H](O)CC(=O)O3)[C@H]21 [LOVASTATIN]	1.4 h	0.87 L/kg	1.3 h	7.2 mL/min/kg
N=C(N)c1ccc(CNC(=O)[C@@H]2CCN2C(=O)[C@H](NCC(=O)O)C2CCCCC2)cc1	1.6 h	0.23 L/kg	2 h	1.9 mL/min/kg
CCCCCC/C=C\CCCCCCCCCC(=O)N[C@H]1[C@H](OC[C@H]2O[C@H](OP(=O)(O)O)[C@H](NC(=O)CC(=O)CCCCCCCCCCC)[C@@H](OCCCCCCCCCC)[C@@H]2O)O[C@H](COC)[C@@H](OP(=O)(O)O)[C@@H]1OCC[C@@H](CCCCCCC)OC [ERITORAN]	51 h	0.048 L/kg	62 h	0.013 mL/min/kg
CN(C)/N=N/c1ccc(C(=O)O)cc1	2.5 h	0.25 L/kg	3 h	1.3 mL/min/kg
CN(CC(N)=O)C(=O)N(CCCl)N=O [SARCNU]	1 h	0.76 L/kg	1.4 h	9 mL/min/kg
Oc1ccc2c3c1O[C@H]1[C@@H](O)CC[C@@]4(O)[C@@H](C2)N(CC2CCC2)CC[C@]314 [NALBUPHINE]	3.7 h	4.6 L/kg	3.5 h	22 mL/min/kg
Nc1ccn(C[C@@H](CO)OCP(=O)(O)O)c(=O)n1.O.O [CIDOFOVIR]	2.6 h	0.49 L/kg	3.3 h	2.5 mL/min/kg
CC=CC1=C(C(=O)O)N2C(=O)[C@@H](NC(=O)[C@H](N)c3ccc(O)cc3)[C@H]2SC1 [CEFPROZIL]	1.2 h	0.21 L/kg	1.2 h	2.9 mL/min/kg
Cc1ccc(O)c([C@H](CCN(C(C)C)C(C)C)c2ccccc2)c1 [TOLTERODINE]	2.4 h	1.5 L/kg	2.98 h	8.4 mL/min/kg
NC[C@H]1O[C@H](O[C@H]2[C@H](O)[C@@H](O[C@H]3O[C@H](CO)[C@@H](O)[C@H](N)[C@H]3O)[C@H](N)C[C@@H]2N)[C@H](O)[C@@H](O)[C@@H]1O [KANAMYCIN]	2.1 h	0.26 L/kg	3.1 h	1.4 mL/min/kg
CC(C(=O)O)c1ccc(C(=O)c2cccs2)cc1 (stereo not drawn) [SUPROFEN]	2.1 h	0.04 L/kg	0.88 h	0.76 mL/min/kg
CN(C)[C@@H]1C(O)=C(C(N)=O)C(=O)[C@@]2(O)C(O)=C3C(=O)c4c(O)ccc(Cl)c4[C@@](C)(O)[C@H]3C[C@@H]12 [CHLORTETRACYCLINE]	7 h	0.9 L/kg	7.4 h	2 mL/min/kg
CC1(C)S[C@@H]2[C@H](NC(=O)C(C(=O)O)c3ccccc3)C(=O)N2[C@H]1C(=O)O (stereo partly drawn) [CARBENICILLIN]	1.1 h	0.17 L/kg	1.5 h	1.9 mL/min/kg
OCCN1C[C@H](O)[C@@H](O)[C@H](O)[C@H]1CO [MIGLITOL]	2.3 h	0.28 L/kg	2.7 h	1.7 mL/min/kg
CN(C)CCN(Cc1cccs1)c1ccccn1	1.6 h	3.3 L/kg	2 h	28 mL/min/kg
C[C@H]([C@](O)(Cn1cncn1)c1ccc(F)cc1F)S(C)(=O)=O [GENACONAZOLE]	49 h	0.62 L/kg	54 h	0.19 mL/min/kg
CNC(=O)c1c(I)c(NC(C)=O)c(I)c(C(=O)O)c1I [IOTHALAMIC ACID]	1.3 h	0.17 L/kg	1.2 h	2.4 mL/min/kg
C[C@H](/C=C/[C@H](C)C(C)(C)O)[C@H]1CC[C@H]2/C(=C/C=C3C[C@@H](O)C[C@H](O)C3)CCC[C@]12C [PARICALCITOL]	5.3 h	0.41 L/kg	7.7 h	0.89 mL/min/kg
Cc1nnc2n1-c1ccc(Cl)cc1C(c1ccccc1)=NC2 [ALPRAZOLAM]	12 h	0.8 L/kg	18 h	0.74 mL/min/kg
Cc1ccccc1N1C(=O)c2cc(S(N)(=O)=O)c(Cl)cc2NC1C (stereo not drawn) [METOLAZONE]	20 h	1.6 L/kg	19 h	1.4 mL/min/kg
CN(C)CCc1c[nH]c2ccc(C[C@H]3COC(=O)N3)cc12 [ZOLMITRIPTAN]	3.6 h	1.8 L/kg	4.6 h	6.7 mL/min/kg

SMILES	half-life (clinical [1])	Vd (clinical [2])	MRT (clinical [3])	clearance (clinical [4])
CCOc1ccc(/C=C2\NCCc3cc(OCC)c(OCC)cc32)cc1OCC [DROTAVERINE]	9.3 h	1.9 L/kg	9 h	3.5 mL/min/kg
CN1CCN(CCCN2c3ccccc3Sc3ccc(Cl)cc32)CC1 [PROCHLORPERAZINE]	9 h	22 L/kg	23 h	16 mL/min/kg
C[C@H]1O[C@H](O[C@H]2[C@H](O)[C@@H](O)[C@@H](O[C@H]3[C@H](O)[C@@H](O)C(O)O[C@@H]3CO)O[C@@H]2CO)[C@H](O)[C@@H](O)[C@@H]1N[C@H]1C=C(CO)[C@@H](O)[C@H](O)[C@H]1O (stereo partly drawn) [ACARBOSE]	2.7 h	0.32 L/kg	2.4 h	2.2 mL/min/kg
CC(C)c1nc(N(C)S(C)(=O)=O)nc(-c2ccc(F)cc2)c1/C=C/[C@@H](O)C[C@@H](O)CC(=O)O [ROSUVASTATIN]	2 h	1.7 L/kg	2.6 h	11 mL/min/kg
CCCCCCCN(CC)CCCC(O)c1ccc(NS(C)(=O)=O)cc1 (stereo not drawn) [IBUTILIDE]	7 h	12 L/kg	7.7 h	26 mL/min/kg
O=C1c2ccccc2S(=O)(=O)N1CCCCNC[C@H]1CCc2ccccc2O1 [REPINOTAN]	1.2 h	0.21 L/kg	1.6 h	2.2 mL/min/kg
NC[C@H]1CC[C@H](C(=O)O)CC1 [TRANEXAMIC ACID]	2.3 h	0.38 L/kg	2.6 h	2.4 mL/min/kg
c1ccc2c(c1)OCC(C1=NCCN1)O2 (stereo not drawn) [IDAZOXAN]	4.2 h	3.3 L/kg	5.5 h	10 mL/min/kg
CNS(=O)(=O)Cc1ccc2[nH]cc(CCN(C)C)c2c1	1.7 h	1.7 L/kg	1.5 h	19 mL/min/kg
CC(=O)N[C@H]1[C@H]([C@H](O)[C@H](O)CO)OC(C(=O)O)=C[C@@H]1N=C(N)N [ZANAMIVIR]	1.7 h	0.23 L/kg	2.4 h	1.6 mL/min/kg
N#Cc1ccc2c(c1)CN(S(=O)(=O)c1cccs1)[C@H](Cc1ccccc1)CN2Cc1cnc[nH]1 [BMS-214662]	1.6 h	0.84 L/kg	1.4 h	9.6 mL/min/kg
NC1CCN(c2c(F)cc3c(=O)c(C(=O)O)cn(C4CC4)c3c2Cl)C1 (stereo not drawn) [CLINAFLOXACIN]	5.4 h	1.9 L/kg	6.7 h	4.7 mL/min/kg
Nc1nc2c(c(=O)[nH]1)N(C=O)C(CNc1ccc(C(=O)N[C@@H](CCC(=O)O)C(=O)O)cc1)CN2 (stereo partly drawn) [LEUCOVORIN]	1.3 h	0.25 L/kg	0.8 h	5.8 mL/min/kg
CC(C)NCC(O)COc1ccc(CCOCC2CC2)cc1 (stereo not drawn) [BETAXOLOL]	17 h	4.8 L/kg	24 h	3.4 mL/min/kg
C[C@H]1O[C@@H](O[C@H]2[C@@H](O)C[C@H](O[C@H]3[C@@H](O)C[C@H](O[C@H]4CC[C@@]5(C)[C@H](CC[C@@H]6[C@@H]5C[C@@H](O)[C@]5(C)[C@@H](C7=CC(=O)OC7)CC[C@]65O)C4)O[C@@H]3C)O[C@@H]2C)C[C@H](O)[C@@H]1O [DIGOXIN]	38 h	4.1 L/kg	40 h	1.7 mL/min/kg
O=C(NCCNCC(O)COc1ccc(O)cc1)N1CCOCC1 (stereo not drawn) [XAMOTEROL]	7.7 h	0.64 L/kg	3.6 h	3 mL/min/kg
CN(C)C(=O)Oc1ccc[n+](C)c1 [PYRIDOSTIGMINE]	1.5 h	1.1 L/kg	1.8 h	9.6 mL/min/kg
CO[C@H]1C[C@@H]2CC[C@@H](C)[C@@](O)(O2)C(=O)C(=O)N2CCCC[C@H]2C(=O)O[C@H]([C@H](C)C[C@@H]2CC[C@@H](OC(=O)C(C)(CO)CO)[C@H](OC)C2)CC(=O)[C@H](C)/C=C(\C)[C@@H](O)[C@@H](OC)C(=O)[C@H](C)C[C@H](C)/C=C/C=C/C=C/1C [TEMSIROLIMUS]	18 h	3 L/kg	10 h	7.7 mL/min/kg
Cc1onc(-c2c(Cl)cccc2Cl)c1C(=O)N[C@@H]1C(=O)N2[C@@H]1SC(C)(C)[C@@H]2C(=O)O [DICLOXACILLIN]	0.88 h	0.11 L/kg	0.92 h	2 mL/min/kg
Cc1c(OCC(F)(F)F)ccnc1C[S+]([O-])c1nc2ccccc2[nH]1 (stereo not drawn) [LANSOPRAZOLE]	1 h	0.28 L/kg	1.1 h	4.4 mL/min/kg
N[C@H](C(=O)O)[C@@H]1CC(Cl)=NO1 [ACIVICIN]	9.9 h	0.5 L/kg	12 h	0.69 mL/min/kg
CC(C)NCC(O)COc1cccc2ccccc12 (stereo not drawn) [PROPRANOLOL]	3.4 h	3.1 L/kg	4.3 h	12 mL/min/kg
CC[C@H]1OC(=O)[C@H](C)[C@@H](O[C@H]2C[C@@](C)(OC)[C@@H](O)[C@H](C)O2)[C@H](C)[C@@H](O[C@@H]2O[C@H](C)C[C@H](N(C)C)[C@H]2O)[C@](C)(OC)C[C@@H](C)C(=O)[C@H](C)[C@@H](O)[C@]1(C)O [CLARITHROMYCIN]	2.8 h	1.5 L/kg	3.4 h	7.3 mL/min/kg
